By IC50 is commonly meant the concentration needed to halve the response being measured.

This is an account of results in patent US20240025893A1, “PYRIMIDINE-AND NITROGEN-CONTAINING BICYCLIC COMPOUND” (Asahi Kasei Pharma Corporation, priority 2020, published 2024).

In one experiment the target is human IRAK-4 (Homo sapiens (Human), UniProt Q9NWZ3). Kind of experiment: Measurement of human IRAK-4 inhibitory activity (TR-FRET, peptide substrate phosphorylation, 10 μM ATP). The format is biochemical. Conditions: 1 nM IRAK-4, 10 μM ATP, 23° C., 30 minutes; average values. In short, it runs like this: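 With 1 nM IRAK-4, 0.5 μM biotinylated peptide and 10 μM ATP, compound incubated 30 min at 23 °C in 50 mM HEPES pH 7.2 with Mg2+/Mn2+. Stopped with EDTA plus europium-cryptate anti-phosphopeptide antibody and streptavidin-XL665, 60 min at 23 °C. Activity taken as the 665/620 nm TR-FRET ratio.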
On the technique in general: In TR-FRET formats the signal depends on donor and acceptor labels being close together.

The subject of experiment [1] is LPS-stimulated TNFα production in THP-1 cells. Kind of experiment: LPS-stimulated TNFα production inhibition test using human acute monocytic leukemia cell strain THP-1. The format is cell-based. Conditions: Homo sapiens, LPS 2.5 ng/mL, average values. In short, it runs like this:
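Readout was HTRF-measured TNFα in supernatants, calibrated against a standard curve, after LPS challenge (2.5 ng/mL final, 4 h) of THP-1 cells pretreated 1 h at 37 °C with compound. Unstimulated wells defined 100% suppression and vehicle wells 0%. IC50 was fitted with a 4-parameter logistic model.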

Chain of human IRAK-4 (Q9NWZ3 whole entry): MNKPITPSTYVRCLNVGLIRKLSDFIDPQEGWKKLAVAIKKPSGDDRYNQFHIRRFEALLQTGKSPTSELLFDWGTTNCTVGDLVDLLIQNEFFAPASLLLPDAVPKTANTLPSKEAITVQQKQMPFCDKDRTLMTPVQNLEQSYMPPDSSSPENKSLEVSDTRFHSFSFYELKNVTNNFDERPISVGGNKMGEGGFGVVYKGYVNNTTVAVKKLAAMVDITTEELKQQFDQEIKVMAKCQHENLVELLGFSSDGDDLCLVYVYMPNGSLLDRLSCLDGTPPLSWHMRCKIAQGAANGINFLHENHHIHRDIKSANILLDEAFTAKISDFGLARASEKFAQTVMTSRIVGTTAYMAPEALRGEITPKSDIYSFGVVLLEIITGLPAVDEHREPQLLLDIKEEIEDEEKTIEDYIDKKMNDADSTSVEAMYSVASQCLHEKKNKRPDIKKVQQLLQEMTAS

`CC1CC(F)(F)CN1C1CC(C(=O)Nc2nc3ccc(-c4cnc(CO[C@H]5CCC[C@@H]5O)nc4)cc3s2)C1` (stereo partly drawn) [b-02-46]: the IC50 against human IRAK-4 is 3.55 nM; in experiment [1] (THP-1, 4 h), 171 nM.

Consider `CN(C1CC(C(=O)Nc2nc3ccc(-c4cnc(CO[C@H]5CCC[C@@H]5O)nc4)cc3s2)C1)C12CC(C)(C1)C2` (stereo partly drawn) [b-03-04], for which the IC50 worked out at 1.67 nM at human IRAK-4 and 117 nM in experiment [1] (THP-1, 4 h).

In the case of `CCCOCc1ncc(-c2ccc3nc(NC(=O)[C@H]4C[C@@H](N5CCN(C(=O)c6ccncc6Cl)C[C@@H]5C)C4)sc3c2)cn1` [b-04-43], the IC50 on human IRAK-4 is 0.65 nM; in experiment [1] (THP-1, 4 h) it was 96 nM.

With `COCCO[C@H]1C[C@@H](C(=O)Nc2nc3ccc(-c4cnc(CO[C@H]5CCC[C@@H]5O)nc4)cc3s2)C1` [d-04-02], the IC50 at human IRAK-4 came out at 2.48 nM; in experiment [1] (THP-1, 4 h) it was 207 nM.

Consider `Cc1nc(C(=O)N2CCN([C@H]3C[C@@H](C(=O)Nc4nc5ccc(-c6cnc(CO[C@H]7CCC[C@@H]7O)nc6)cc5s4)C3)[C@@H](C)C2)co1` [b-04-36], for which the IC50 came to 0.9 nM on human IRAK-4 and 48 nM in experiment [1] (THP-1, 4 h).

Turning to `CC(C)C(=O)N1CCC2(CC1)CC(C(=O)Nc1nc3ccc(-c4cnc(CO[C@H]5CCC[C@@H]5O)nc4)cc3s1)C2` [d-03-05], the IC50 came out at 2.52 nM against human IRAK-4 and 93 nM in experiment [1] (THP-1, 4 h).

Turning to `C[C@H]1CN(C(=O)C2CCOC2)CCN1[C@H]1C[C@@H](C(=O)Nc2nc3ccc(-c4cnc(CO[C@H]5CCC[C@@H]5O)nc4)cc3s2)C1` (stereo partly drawn) [b-04-07], the IC50 against human IRAK-4 was 2.6 nM; in experiment [1] (THP-1, 4 h), 60 nM.

For the compound `CN(CC(F)F)C1CC(C(=O)Nc2nc3ccc(-c4cnc(CO[C@H]5CCC[C@@H]5O)nc4)cc3s2)C1` (stereo partly drawn) [b-02-53], the concentration for half-maximal inhibition (IC50) against human IRAK-4 turned out to be 2.59 nM; in experiment [1] (THP-1, 4 h), 172 nM.

As to `O=C(Nc1nc2ccc(-c3cnc(COC4CC(F)(F)C4)nc3)cc2s1)C1CC1` [a-04-04], the concentration for half-maximal inhibition (IC50) on human IRAK-4 was determined as 2.32 nM; in experiment [1] (THP-1, 4 h) it was 444 nM.

For `CC(=O)N1CCN(C2CC(C(=O)Nc3nc4ccc(-c5cnc(CO[C@H]6CCC[C@@H]6O)nc5)cc4s3)C2)CC1` (stereo partly drawn) [b-02-38], the IC50 stood at 2.98 nM against human IRAK-4 and 150 nM in experiment [1] (THP-1, 4 h).

Turning to `O=C(Nc1nc2ccc(-c3cnc(CO[C@H]4CCC[C@@H]4O)nc3)cc2s1)C1CC(NC23CC(C2)C3)C1` (stereo partly drawn) [b-02-29], the IC50 against human IRAK-4 is 2.43 nM; in experiment [1] (THP-1, 4 h) it was 124 nM.

On to `O=C(Nc1nc2ccc(-c3cnc(CO[C@H]4CCC[C@@H]4O)nc3)cc2s1)C1CC(N2CC3CC(C2)O3)C1` (stereo partly drawn) [b-02-09], for which the IC50 amounted to 2.42 nM against human IRAK-4 and 142 nM in experiment [1] (4 hours).

Consider `COc1c(-c2cnc(CO[C@H]3CCC[C@@H]3O)nc2)ccc2nc(NC(=O)[C@H]3C[C@@](C)(O)C3)sc12` [c-02-05], for which the half-inhibitory concentration (IC50) against human IRAK-4 was 4.64 nM; in experiment [1] (THP-1, 4 h), 175 nM.

On to `CC[C@H]1COCCN1C1CC(C(=O)Nc2nc3ccc(-c4cnc(CO[C@H]5CCC[C@@H]5O)nc4)cc3s2)C1` (stereo partly drawn) [b-02-20], for which the IC50 against human IRAK-4 is 4.28 nM; in experiment [1] (THP-1, 4 h), 78 nM.

Regarding `O=C(Nc1nc2ccc(-c3cnc(CO[C@H]4CCC[C@@H]4O)nc3)cc2s1)C1CC(CN2CC(F)C2)C1` (stereo partly drawn) [d-05-02], the half-inhibitory concentration (IC50) turned out to be 2.1 nM against human IRAK-4 and 223 nM in experiment [1] (THP-1, 4 h).

`CCC(=O)N1CCN([C@H]2C[C@@H](C(=O)Nc3cc4cc(-c5cnc(CO[C@H]6CCC[C@@H]6O)nc5)ccn4n3)C2)[C@@H](C)C1` [e-02-05]: the half-maximal inhibitory concentration (IC50) against human IRAK-4 is 1.14 nM; in experiment [1] (THP-1, 4 h), 123 nM.

`O=C(Nc1nc2ccc(-c3cnc(CO[C@H]4CCC[C@@H]4O)nc3)cc2s1)C1CC(NC2(C(F)(F)F)CCC2)C1` (stereo partly drawn) [b-02-79]: the IC50 is 3.39 nM against human IRAK-4 and 138 nM in experiment [1] (THP-1, 4 h).

Turning to `CN(C1CC(C(=O)Nc2nc3ccc(-c4cnc(CO[C@H]5CCC[C@@H]5O)nc4)cc3s2)C1)C1CC(F)(F)C1` (stereo partly drawn) [b-03-08], the half-maximal inhibitory concentration (IC50) at human IRAK-4 amounted to 2.68 nM; in experiment [1] (THP-1, 4 h), 127 nM.

On to `CCCOCc1ncc(-c2ccc3nc(NC(=O)C4CC4)sc3c2)cn1` [a-02-01, N-(6-(2-(Propoxymethyl)pyrimidin-5-yl)benzo[d]thiazol-2-yl)cyclopropanecarboxamide], for which the IC50 against human IRAK-4 was found to be 16.1 nM; in experiment [1] (THP-1, 4 h), 330 nM.

As for `COCCOCC(=O)N1CCN([C@H]2C[C@@H](C(=O)Nc3nc4ccc(-c5cnc(CO[C@H]6CCC[C@@H]6O)nc5)c(OC)c4s3)C2)[C@@H](C)C1` [c-03-04], the IC50 against human IRAK-4 stood at 2.69 nM; in experiment [1] (THP-1, 4 h), 320 nM.

Regarding `CC(C)(C)O[C@H]1C[C@@H](C(=O)Nc2nc3ccc(-c4cnc(CO[C@H]5CCC[C@@H]5O)nc4)cc3s2)C1` [d-02-01, (1s,3s)-3-(tert-Butoxy)-N-(6-(2-((((1S,2S)-2-hydroxycyclopentyl)oxy)methyl)pyrimidin-5-yl)benzo[d]thiazol-2-yl)cyclobutane-1-carboxamide], the IC50 is 1.83 nM against human IRAK-4 and 77 nM in experiment [1] (THP-1, 4 h).

Consider `O=C(Nc1nc2ccc(-c3cnc(CO[C@H]4CCC[C@@H]4O)nc3)cc2s1)C1CC(NCc2ccsn2)C1` (stereo partly drawn) [b-02-87], for which the IC50 against human IRAK-4 stood at 0.95 nM; in experiment [1] (THP-1, 4 h), 182 nM.

On to `O=C(Nc1nc2ccc(-c3cnc(CO[C@H]4CCC[C@@H]4O)nc3)cc2s1)C1CC(NC2CCC2)C1` (stereo partly drawn) [b-02-48], for which the 50% inhibitory concentration (IC50) against human IRAK-4 is 2.03 nM; in experiment [1] (THP-1, 4 h), 143 nM.

As to `C[C@]1(F)C[C@H](C(=O)Nc2nc3ccc(-c4cnc(CO[C@H]5CCC[C@@H]5O)nc4)cc3s2)C1` [d-01-08], the 50% inhibitory concentration (IC50) was found to be 2.89 nM against human IRAK-4 and 202 nM in experiment [1] (THP-1, 4 h).

`C[C@H]1CN(C(=O)c2ccc(Cl)cn2)CCN1[C@H]1C[C@@H](C(=O)Nc2cc3cc(-c4cnc(CO[C@H]5CCC[C@@H]5O)nc4)ccn3n2)C1` [e-02-25]: the 50% inhibitory concentration (IC50) worked out at 1.58 nM at human IRAK-4 and 53 nM in experiment [1] (THP-1, 4 h).

Turning to `CN(C1CC1)C1CC(C(=O)Nc2nc3ccc(-c4cnc(CO[C@H]5CCC[C@@H]5O)nc4)cc3s2)C1` (stereo partly drawn) [b-03-03], the IC50 on human IRAK-4 stood at 1.43 nM; in experiment [1] (THP-1, 4 h), 126 nM.

`O=C(Nc1nc2ccc(-c3cnc(CO[C@H]4CCC[C@@H]4O)nc3)cc2s1)C1CC(NC2(C(F)(F)F)CC2)C1` (stereo partly drawn) [b-02-57]: the IC50 was found to be 2.62 nM on human IRAK-4 and 119 nM in experiment [1] (THP-1, 4 h).

Take `CN(c1cnn(C)c1)C1CC(C(=O)Nc2nc3ccc(-c4cnc(CO[C@H]5CCC[C@@H]5O)nc4)cc3s2)C1` (stereo partly drawn) [b-03-09]: the IC50 on human IRAK-4 came to 2.21 nM; in experiment [1] (THP-1, 4 h) it was 143 nM.

For `CCCOCc1ncc(-c2ccn3nc(NC(=O)[C@H]4C[C@@H](N5CCN(C(=O)c6cc(C)nc(C)c6)C[C@@H]5C)C4)cc3c2)cn1` [e-02-23], the IC50 against human IRAK-4 was 0.88 nM; in experiment [1] (THP-1, 4 h), 111 nM.

As to `O=C(Nc1nc2ccc(-c3cnc(CO[C@H]4CCC[C@@H]4O)nc3)cc2s1)[C@@H]1C[C@H]1F` [a-01-03], the half-maximal inhibitory concentration (IC50) on human IRAK-4 came to 2.69 nM; in experiment [1] (THP-1, 4 h), 141 nM.

As to `C[C@H]1CN(C(=O)c2ccon2)CCN1[C@H]1C[C@@H](C(=O)Nc2nc3ccc(-c4cnc(CO[C@H]5CCC[C@@H]5O)nc4)cc3s2)C1` [b-04-39], the IC50 at human IRAK-4 was 0.66 nM; in experiment [1] (THP-1, 4 h), 44 nM.

On to `CC[C@H]1CN(C(=O)c2ccccn2)CCN1C1CC(C(=O)Nc2nc3ccc(-c4cnc(CO[C@H]5CCC[C@@H]5O)nc4)cc3s2)C1` (stereo partly drawn) [b-04-16], for which the half-maximal inhibitory concentration (IC50) on human IRAK-4 is 1.51 nM; in experiment [1] (THP-1, 4 h), 23 nM.

As to `C[C@@H]1CCCN1C1CC(C(=O)Nc2nc3ccc(-c4cnc(CO[C@H]5CCC[C@@H]5O)nc4)cc3s2)C1` (stereo partly drawn) [b-02-27], the IC50 against human IRAK-4 worked out at 1.48 nM; in experiment [1] (THP-1, 4 h), 159 nM.

`CC(C)C[C@H]1COCCN1C1CC(C(=O)Nc2nc3ccc(-c4cnc(CO[C@H]5CCC[C@@H]5O)nc4)cc3s2)C1` (stereo partly drawn) [b-02-67]: the IC50 on human IRAK-4 is 2.36 nM; in experiment [1] (THP-1, 4 h) it was 91 nM.

Take `C[C@H]1CN(C2CC(C(=O)Nc3nc4ccc(-c5cnc(CO[C@H]6CCC[C@@H]6O)nc5)cc4s3)C2)CCO1` (stereo partly drawn) [b-02-07]: the 50% inhibitory concentration (IC50) against human IRAK-4 stood at 2.28 nM; in experiment [1] (THP-1, 4 h), 164 nM.

As to `C[C@H]1CN(C(=O)C2CCOCC2)CCN1[C@H]1C[C@@H](C(=O)Nc2nc3ccc(-c4cnc(CO[C@H]5CCC[C@@H]5O)nc4)cc3s2)C1` [b-04-09], the IC50 stood at 2.58 nM against human IRAK-4 and 55 nM in experiment [1] (THP-1, 4 h).

As for `O=C(Nc1nc2ccc(-c3cnc(CO[C@H]4CCC[C@@H]4O)nc3)c(OCCO)c2s1)C1CC1` [c-06-01, N-(6-(2-((((1S,2S)-2-Hydroxycyclopentyl)oxy)methyl)pyrimidin-5-yl)-7-(2-hydroxyethoxy)benzo[d]thiazol-2-yl)cyclopropanecarboxamide], the IC50 was determined as 5.45 nM at human IRAK-4 and 358 nM in experiment [1] (THP-1, 4 h).

Turning to `Cn1cc(NC2CC(C(=O)Nc3nc4ccc(-c5cnc(CO[C@H]6CCC[C@@H]6O)nc5)cc4s3)C2)cn1` (stereo partly drawn) [b-02-65], the concentration for half-maximal inhibition (IC50) against human IRAK-4 was determined as 2.38 nM; in experiment [1] (THP-1, 4 h), 163 nM.

As for `COc1c(-c2cnc(CO[C@H]3CCC[C@@H]3O)nc2)ccc2nc(NC(=O)C3CC34CC4)sc12` (stereo partly drawn) [c-02-06], the IC50 against human IRAK-4 turned out to be 2.13 nM; in experiment [1] (THP-1, 4 h) it was 194 nM.
